Test results reported in patent US20250019705A1, “PHARMACEUTICAL COMPOSITION FOR PREVENTING OR TREATING TARGET CANCER INCLUDING BRCA-SPECIFIC siRNA AS ACTIVE INGREDIENT” (KOREA INSTITUTE OF SCIENCE AND TECHNOLOGY, priority 2023, published 2025).

Assays:
Assay type in all cases: cell-based, mouse
ID8 cells = experiment: PARP inhibitor IC50 analysis through MTS assay in ID8 cells incubated with vSIRPα-siBRCA
Experimental: (§1) FIG. 9A, FIG. 9B, FIG. 9C, and FIG. 9D illustrate a result of treating ID8 cells incubated with vSIRPα-siBRCA with a PARP inhibitor (Olaparib or Talazoparib) and performing IC50 analysis through MTS assay.
(§2) Knockdown and knockout of BRCA genes were highly correlated with the efficacy of synthetic lethal cell death induction of the PARP inhibitor. Therefore, whether the PARP inhibitor, after silencing the expression of BRCA1/2, could induce apoptosis of tumor cells was required confirmation. BRCA1 and/or BRCA2 may be effectively knocked down by treating ID8 cells with the vSIRPα-siBRCA conjugates. Therefore ID8 cells were treated with the vSIRPα-siBRCA conjugates for 48 hours and then treated with Talazoparib at various concentrations for 72 hours.

[1] = tested on: BRCA1-deficient ID8 cells; experiment: PARP inhibitor IC50 analysis through MTS assay in BRCA1-deficient ID8 cells with BRCA2 knockdown; conditions: BRCA1-deficient ID8 cells with BRCA2 knocked down
Experimental: as §1, §2

phospho-H2AX (γH2AX) = experiment: DNA damage analysis by flow cytometry after PARP inhibitor in BRCA silenced cells; conditions: for γH2AX increase compared with control group: 0.01 μM Talazoparib
Experimental: The ID8 cells were dispensed in a 6-well plate at 2×10^5 cells/dish and incubated for 48 hours with PBS, vSIRPα-siBRCA1, vSIRPα-siBRCA2, and vSIRPα-siBRCA1/2. Subsequently, the cells were trypsinized and dispensed in a 6-well plate at 2×10^5 cells/dish, and treated with Olaparib or Talazoparib at a predetermined concentration for 24 to 48 hours.
Subsequently, the cells were detached with Trypsin-EDTA, blocked for 30 minutes using a PBS solution containing 1% FBS, and then a phospho-H2AX antibody was incubated for 2 hours. Thereafter, after PBS washing, flow cytometry was performed using a FACS device to measure phospho-H2AX antibody staining
To evaluate the level of PARP inhibitor-mediated DNA damage in BRCA gene-silenced cells, the expression levels of phospho-H2AX (γH2AX), a DNA damage marker, were measured by flow cytometry.
ID8 cells were treated with vSIRPα-siBRCA1 and vSIRPα-siBRCA2 alone or in combination, respectively, and after 48 hours, each cell type was treated with a PARP inhibitor, Talazoparib, and incubated for 48 hours.

[2] = BRCA1-knockdown (silenced) ID8 cells, vSIRPα-siBRCA 48 hours then PARP inhibitor 72 hours
[3] = BRCA1/2 silenced ID8 cells (vSIRPα-siBRCA1 and vSIRPα-BRCA2 together), 48 hours then PARP inhibitor 72 hours
[4] = BRCA2-knockdown (silenced) ID8 cells, vSIRPα-siBRCA 48 hours then PARP inhibitor 72 hours

SMILES	fold reduction of IC50 of PARP inhibitor vs BRCA normal-expressing (control) ID8 cells (ID8 cells; [2])	fold reduction of IC50 of PARP inhibitor vs BRCA normal-expressing (control) ID8 cells (ID8 cells; [3])	fold reduction of IC50 of PARP inhibitor vs BRCA normal-expressing (control) ID8 cells (ID8 cells; [4])	fold reduction of IC50 of PARP inhibitor by BRCA2 knockdown [1]	γH2AX increase compared with control group (phospho-H2AX (γH2AX); BRCA1/2 silenced ID8 cells (both conjugates 48 hours)) [fold]	γH2AX increase compared with control group (phospho-H2AX (γH2AX); BRCA1 silenced ID8 cells (vSIRPα-siBRCA1 48 hours))	γH2AX increase compared with control group (phospho-H2AX (γH2AX); BRCA2 silenced ID8 cells (vSIRPα-siBRCA2 48 hours)) [fold]	expression levels of γH2AX (phospho-H2AX (γH2AX); ID8-sgBRCA1/2 cells, Talazoparib 48 hours)
Cn1ncnc1[C@H]1c2n[nH]c(=O)c3cc(F)cc(c23)N[C@@H]1c1ccc(F)cc1 [Talazoparib]	3.23 fold	28.11 fold	4.34 fold	about 3.6 fold	~3.06	about 1.32 fold	~2.16	significantly increased
O=C(c1cc(Cc2n[nH]c(=O)c3ccccc23)ccc1F)N1CCN(C(=O)C2CC2)CC1 [Olaparib]	about 3.76 fold	about 13.97 fold	about 2.77 fold	–	–	–	–	–
